{"source": "patent US8778985B2", "about": "“Inhibiting amyloid-beta peptide/rage interaction at the blood-brain barrier” (The University of Rochester, priority 2006, dated 2014)", "biological_target": "T1, RAGE (Homo sapiens, UniProt Q15109)", "T1 construct": "expressed in transfected cells; host or cells: Chinese hamster ovary (CHO) cells", "T1 sequence (Q15109 23-404)": "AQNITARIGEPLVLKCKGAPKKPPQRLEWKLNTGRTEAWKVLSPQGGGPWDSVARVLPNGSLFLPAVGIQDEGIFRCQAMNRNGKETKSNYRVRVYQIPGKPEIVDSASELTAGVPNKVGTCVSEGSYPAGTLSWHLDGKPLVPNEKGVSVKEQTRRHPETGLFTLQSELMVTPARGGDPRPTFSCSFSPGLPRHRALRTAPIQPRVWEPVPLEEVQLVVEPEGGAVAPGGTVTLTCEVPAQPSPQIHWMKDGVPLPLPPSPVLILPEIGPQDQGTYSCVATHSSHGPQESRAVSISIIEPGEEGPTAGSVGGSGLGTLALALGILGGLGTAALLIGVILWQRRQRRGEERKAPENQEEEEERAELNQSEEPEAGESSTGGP", "experiment": "125I-Aβ40 specific binding on RAGE-transfected CHO cells at 4° C., competitive inhibition", "settings": "for inhibitory constant (Ki) of Aβ-RAGE binding: competitive", "source_text": "Data are mean±s.e.m., n=3 per group.\nAll three are tertiary amides substituted with a large, hydrophobic hydrocarbon moiety and a monosubstituted aromatic moiety. Linkage to the monosubstituted aromatic is either direct (FPS2) or via an alkyl (FPS1) or heteroaromatic (FPS3) spacer. Two of the compounds also feature a highly electron-poor substituted benzene ring (3-nitro, 4-chloro for FPS1; 3,5-dinitro for FPS2).", "data": [{"smiles": "CCOCCCN(CC(=O)N(Cc1cccn1Cc1ccc(F)cc1)C1CCCCC1)C(=O)C(C)(C)CCl", "note": "[FPS1, 3-chloro-N-[2-[cyclohexyl[[1-[(4-fluorophenyl)methyl]-1H-pyrrol-2-yl]methyl]amino]-2-oxoethyl]-N-(3-ethoxypropyl)-2,2-dimethyl-(9Cl)-propanamide]", "values": [{"measurement": "Ki/Kd ratio (Ki compound's inhibitory constant, Kd Aβ-RAGE binding constant)", "result": 2.6}, {"measurement": "inhibitory constant (Ki) of Aβ-RAGE binding", "result": "low"}]}, {"smiles": "CCCCCC(=Cc1ccccc1)CN(CCc1c[nH]c2ccccc12)C(=O)c1ccc(Cl)c([N+](=O)[O-])c1", "note": "[FPS3, 4-chloro-N-[2-(1H-indo-3-yl)-ethyl]-3-nitro-N-(2-pentyl-3-phenyl-allyl)-benzamide]", "values": [{"measurement": "Ki/Kd ratio (Ki compound's inhibitory constant, Kd Aβ-RAGE binding constant)", "result": 1.6}, {"measurement": "inhibitory constant (Ki) of Aβ-RAGE binding", "result": "low"}]}]}
